Test results: ChEMBL document CHEMBL1201862, “PubChem BioAssay data set” (2004)
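Five concentrations, 48 hours, 96-well plates. The concentration for 50% growth inhibition is given as GI50.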 Calls of active or inactive are those of the source. Rule as the data show it: active = GI50 up to about 1.1 µM and inactive = higher.

How the values were obtained:
Test in all cases: NCI anticancer screen, dose series, 48 h
[1] = system: 786-0
[2] = system: A549
[3] = system: EKVX
[4] = system: HOP-92
[5] = system: IGROV-1
[6] = system: K562
[7] = system: MDA-MB-231
[8] = system: MOLT-4
[9] = system: Malme-3M
[10] = system: OVCAR-4
[11] = system: OVCAR-5
[12] = system: RPMI-8226
[13] = system: SK-MEL-5
[14] = system: SK-OV-3
[15] = system: SNB-19
[16] = system: SW-620
[17] = system: T47D
[18] = system: U-251
[19] = system: UO-31

## CSc1nc(Cl)c2c(n1)Sc1nc3cc4c(cc3n1C2O)OCCO4 (stereo unspecified)
[1]
  GI50: 0.0336 µM (active)
[2]
  GI50: 0.126 µM (active)
[3]
  GI50: 15.2 µM (inactive)
[4]
  GI50: 0.875 µM (active)
[5]
  GI50: 0.138 µM (active)
[6]
  GI50: 0.0318 µM (active)
[7]
  GI50: 0.321 µM (active)
[8]
  GI50: 0.0348 µM (active)
[9]
  GI50: 0.847 µM (active)
[10]
  GI50: 14.6 µM (inactive)
[11]
  GI50: 4.03 µM (inactive)
[12]
  GI50: 0.0318 µM (active)
[13]
  GI50: 0.0703 µM (active)
[14]
  GI50: 0.445 µM (active)
[15]
  GI50: 0.344 µM (active)
[16]
  GI50: 0.0153 µM (active)
[17]
  GI50: 15.4 µM (inactive)
[18]
  GI50: 0.223 µM (active)
[19]
  GI50: 0.112 µM (active)

## O=C1Oc2ccccc2C(=O)/C1=C/NC(=S)NCc1ccccc1
[1]
  GI50: 64.1 µM (inactive)
[2]
  GI50: 65.2 µM (inactive)
[3]
  GI50: > 100 µM (inactive)
[4]
  GI50: > 100 µM (inactive)
[5]
  GI50: 38.8 µM (inactive)
[7]
  GI50: 71 µM (inactive)
[8]
  GI50: 54.3 µM (inactive)
[10]
  GI50: 73.8 µM (inactive)
[11]
  GI50: > 100 µM (inactive)
[13]
  GI50: 69.5 µM (inactive)
[14]
  GI50: > 100 µM (inactive)
[15]
  GI50: 43.6 µM (inactive)
[16]
  GI50: 99.1 µM (inactive)
[17]
  GI50: 81.7 µM (inactive)
[18]
  GI50: 57.3 µM (inactive)
[19]
  GI50: 16.2 µM (inactive)

## OC1OC(c2ccco2)C(F)(F)C(F)(F)C1(F)F (stereo unspecified)
[1]
  GI50: > 100 µM (inactive)
[2]
  GI50: 74 µM (inactive)
[3]
  GI50: 81.7 µM (inactive)
[4]
  GI50: 38 µM (inactive)
[5]
  GI50: > 100 µM (inactive)
[6]
  GI50: > 100 µM (inactive)
[7]
  GI50: 65.6 µM (inactive)
[9]
  GI50: 51.8 µM (inactive)
[10]
  GI50: 43.2 µM (inactive)
[11]
  GI50: > 100 µM (inactive)
[12]
  GI50: 39.8 µM (inactive)
[13]
  GI50: 35.2 µM (inactive)
[14]
  GI50: > 100 µM (inactive)
[15]
  GI50: > 100 µM (inactive)
[16]
  GI50: > 100 µM (inactive)
[17]
  GI50: 46.2 µM (inactive)
[18]
  GI50: > 100 µM (inactive)
[19]
  GI50: 59.6 µM (inactive)

## Cc1nc(O)nc(N(CCO)/N=C/c2ccc(Cl)cc2)c1C(=O)Nc1ccc(Cl)cc1
[1]
  GI50: > 100 µM (inactive)
[2]
  GI50: > 100 µM (inactive)
[3]
  GI50: > 100 µM (inactive)
[4]
  GI50: > 100 µM (inactive)
[5]
  GI50: > 100 µM (inactive)
[6]
  GI50: > 100 µM (inactive)
[7]
  GI50: 36.7 µM (inactive)
[8]
  GI50: > 100 µM (inactive)
[9]
  GI50: 26.1 µM (inactive)
[10]
  GI50: > 100 µM (inactive)
[11]
  GI50: > 100 µM (inactive)
[13]
  GI50: > 100 µM (inactive)
[14]
  GI50: 58.2 µM (inactive)
[15]
  GI50: 83.9 µM (inactive)
[16]
  GI50: > 100 µM (inactive)
[17]
  GI50: 98.4 µM (inactive)
[18]
  GI50: 21.3 µM (inactive)
[19]
  GI50: > 100 µM (inactive)

## N#CCCN(CCC#N)c1ccc(/C=C2\N=C(c3ccccc3)N(NC(N)=S)C2=O)cc1
[1]
  GI50: > 100 µM (inactive)
[2]
  GI50: > 100 µM (inactive)
[3]
  GI50: > 100 µM (inactive)
[4]
  GI50: > 100 µM (inactive)
[5]
  GI50: > 100 µM (inactive)
[6]
  GI50: > 100 µM (inactive)
[7]
  GI50: > 100 µM (inactive)
[8]
  GI50: > 100 µM (inactive)
[9]
  GI50: > 100 µM (inactive)
[10]
  GI50: > 100 µM (inactive)
[11]
  GI50: > 100 µM (inactive)
[12]
  GI50: > 100 µM (inactive)
[13]
  GI50: > 100 µM (inactive)
[14]
  GI50: > 100 µM (inactive)
[15]
  GI50: > 100 µM (inactive)
[16]
  GI50: > 100 µM (inactive)
[17]
  GI50: > 100 µM (inactive)
[18]
  GI50: > 100 µM (inactive)
[19]
  GI50: > 100 µM (inactive)

## Fc1sc2c(c1F)C1CCC2C1 (stereo unspecified)
[1]
  GI50: > 100 µM (inactive)
[2]
  GI50: > 100 µM (inactive)
[3]
  GI50: > 100 µM (inactive)
[4]
  GI50: > 100 µM (inactive)
[5]
  GI50: 51.2 µM (inactive)
[7]
  GI50: 83.2 µM (inactive)
[8]
  GI50: 34.6 µM (inactive)
[9]
  GI50: > 100 µM (inactive)
[10]
  GI50: > 100 µM (inactive)
[11]
  GI50: > 100 µM (inactive)
[12]
  GI50: 31.9 µM (inactive)
[13]
  GI50: > 100 µM (inactive)
[14]
  GI50: > 100 µM (inactive)
[15]
  GI50: > 100 µM (inactive)
[16]
  GI50: > 100 µM (inactive)
[17]
  GI50: 88.3 µM (inactive)
[18]
  GI50: 97.7 µM (inactive)
[19]
  GI50: 54 µM (inactive)

## COc1cc2c[n+]3c4c(c2c(OC)c1OC)CCCC4CC3 (stereo unspecified)
[1]
  GI50: > 100 µM (inactive)
[2]
  GI50: > 100 µM (inactive)
[3]
  GI50: > 100 µM (inactive)
[4]
  GI50: > 100 µM (inactive)
[5]
  GI50: > 100 µM (inactive)
[6]
  GI50: 62.4 µM (inactive)
[7]
  GI50: > 100 µM (inactive)
[8]
  GI50: > 100 µM (inactive)
[9]
  GI50: 15.5 µM (inactive)
[10]
  GI50: > 100 µM (inactive)
[11]
  GI50: > 100 µM (inactive)
[12]
  GI50: > 100 µM (inactive)
[13]
  GI50: 19.3 µM (inactive)
[14]
  GI50: > 100 µM (inactive)
[15]
  GI50: 36.6 µM (inactive)
[16]
  GI50: > 100 µM (inactive)
[17]
  GI50: 27.9 µM (inactive)
[18]
  GI50: 17 µM (inactive)
[19]
  GI50: > 100 µM (inactive)

## CN(C)CC1CCC/C(=C\c2ccc(N(C)C)cc2)C1=O (stereo unspecified)
[1]
  GI50: 3.34 µM (inactive)
[2]
  GI50: 17.9 µM (inactive)
[3]
  GI50: 16.7 µM (inactive)
[4]
  GI50: 3.33 µM (inactive)
[5]
  GI50: 3.73 µM (inactive)
[6]
  GI50: 28.1 µM (inactive)
[7]
  GI50: 4.78 µM (inactive)
[8]
  GI50: 4.97 µM (inactive)
[9]
  GI50: 12.1 µM (inactive)
[10]
  GI50: 2.15 µM (inactive)
[11]
  GI50: 13.9 µM (inactive)
[12]
  GI50: > 100 µM (inactive)
[13]
  GI50: 17.6 µM (inactive)
[14]
  GI50: 17.8 µM (inactive)
[15]
  GI50: 17.7 µM (inactive)
[16]
  GI50: 1.85 µM (inactive)
[17]
  GI50: 2.25 µM (inactive)
[18]
  GI50: 17 µM (inactive)
[19]
  GI50: 10.4 µM (inactive)
